From ChEMBL document CHEMBL1201862, “PubChem BioAssay data set” (2004)
Several values for one entry are separate records, joined by “and”; a condition that tells them apart may be missing. Equal values may be shown once. Activity calls are given as the source filed them.

Assays:
[1] = viability loss in human Jurkat cells – cell-based, luminescence, cytotoxicity control for P. falciparum gametocyte viability project, dose response (AID 1117277); format: functional;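 also: potency reflects loss of cellular ATP meaning fewer viable cells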
[2] = viability inhibitors of stage V gametocytes – luminescence, dose response (AID 1117278); format: functional, cell-based;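 also: gametocytes exposed to compound for 24 hours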
[3] = target: T1, Sphingosine 1-phosphate receptor 2 (Homo sapiens, UniProt O95136); experiment: Dose Response Cell Based Assay for Antagonists of the S1P2 Receptor. [Related pubchem assays: 856, 736 ]; format: functional
T1 sequence (O95136 whole entry): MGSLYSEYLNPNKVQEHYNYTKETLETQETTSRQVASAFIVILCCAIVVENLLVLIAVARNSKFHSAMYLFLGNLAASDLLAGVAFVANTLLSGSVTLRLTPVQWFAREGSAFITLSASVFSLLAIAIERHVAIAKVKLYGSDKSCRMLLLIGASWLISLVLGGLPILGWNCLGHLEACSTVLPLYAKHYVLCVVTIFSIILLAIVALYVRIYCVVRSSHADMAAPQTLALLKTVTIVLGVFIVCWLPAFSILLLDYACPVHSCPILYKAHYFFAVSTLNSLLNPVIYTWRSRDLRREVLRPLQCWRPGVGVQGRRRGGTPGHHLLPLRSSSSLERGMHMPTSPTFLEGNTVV

[4] = target: T2, SUMO-activating enzyme (Homo sapiens, UniProt Q9UBT2); experiment: blockers of SAE1/SAE2–UBC9 SUMO transfer – biochemical, HTRF, uHTS, primary screen (AID 2006); format: protein-complex assay
T2 sequence (Q9UBE0 whole entry): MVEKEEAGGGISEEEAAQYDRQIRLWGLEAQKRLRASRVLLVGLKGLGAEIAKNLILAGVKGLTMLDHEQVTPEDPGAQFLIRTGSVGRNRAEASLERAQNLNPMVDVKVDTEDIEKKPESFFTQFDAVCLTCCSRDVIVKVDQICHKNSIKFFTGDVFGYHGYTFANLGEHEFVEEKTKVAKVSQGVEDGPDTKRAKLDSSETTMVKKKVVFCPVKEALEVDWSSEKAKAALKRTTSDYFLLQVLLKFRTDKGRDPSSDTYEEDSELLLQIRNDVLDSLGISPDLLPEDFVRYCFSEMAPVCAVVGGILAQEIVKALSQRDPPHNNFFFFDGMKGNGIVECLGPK
T2 sequence (Q9UBT2 whole entry): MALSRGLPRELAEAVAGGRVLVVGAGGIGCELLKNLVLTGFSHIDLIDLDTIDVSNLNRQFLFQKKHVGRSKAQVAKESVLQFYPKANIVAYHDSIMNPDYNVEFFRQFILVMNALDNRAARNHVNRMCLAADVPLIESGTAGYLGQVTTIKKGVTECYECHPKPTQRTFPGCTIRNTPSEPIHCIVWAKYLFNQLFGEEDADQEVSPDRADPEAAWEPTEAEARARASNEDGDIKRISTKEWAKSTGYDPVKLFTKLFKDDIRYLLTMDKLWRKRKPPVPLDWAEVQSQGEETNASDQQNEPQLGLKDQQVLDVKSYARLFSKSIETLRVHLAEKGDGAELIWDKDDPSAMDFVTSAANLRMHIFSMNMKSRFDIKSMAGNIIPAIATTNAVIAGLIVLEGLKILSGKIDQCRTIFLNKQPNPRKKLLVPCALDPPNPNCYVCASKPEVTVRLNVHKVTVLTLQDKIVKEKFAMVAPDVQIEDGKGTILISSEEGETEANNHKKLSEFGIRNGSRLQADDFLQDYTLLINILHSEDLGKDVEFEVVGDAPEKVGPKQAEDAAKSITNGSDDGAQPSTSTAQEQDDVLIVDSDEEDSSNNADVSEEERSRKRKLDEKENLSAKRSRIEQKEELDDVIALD

[5] = target: T2, SUMO-activating enzyme; experiment: blockers of UBC9-mediated SUMO conjugation – biochemical, AlphaScreen, SUMOylation inhibitor project, confirmation (AID 2018); format: functional
[6] = target: E3 ubiquitin-protein ligase UHRF1 (Homo sapiens, UniProt Q96T88); experiment: Counterscreen for inhibitors of 5-meCpG-binding domain protein 2 (MBD2): TRFRET-based biochemical high throughput dose response assay to identify inhibitors of binding of ubiquitin-like with PHD and ring finger domains 1 (UHRF1) to methylated oligonucleotide.
Chain of E3 ubiquitin-protein ligase UHRF1 (Q96T88 whole entry, the tested form may be a part): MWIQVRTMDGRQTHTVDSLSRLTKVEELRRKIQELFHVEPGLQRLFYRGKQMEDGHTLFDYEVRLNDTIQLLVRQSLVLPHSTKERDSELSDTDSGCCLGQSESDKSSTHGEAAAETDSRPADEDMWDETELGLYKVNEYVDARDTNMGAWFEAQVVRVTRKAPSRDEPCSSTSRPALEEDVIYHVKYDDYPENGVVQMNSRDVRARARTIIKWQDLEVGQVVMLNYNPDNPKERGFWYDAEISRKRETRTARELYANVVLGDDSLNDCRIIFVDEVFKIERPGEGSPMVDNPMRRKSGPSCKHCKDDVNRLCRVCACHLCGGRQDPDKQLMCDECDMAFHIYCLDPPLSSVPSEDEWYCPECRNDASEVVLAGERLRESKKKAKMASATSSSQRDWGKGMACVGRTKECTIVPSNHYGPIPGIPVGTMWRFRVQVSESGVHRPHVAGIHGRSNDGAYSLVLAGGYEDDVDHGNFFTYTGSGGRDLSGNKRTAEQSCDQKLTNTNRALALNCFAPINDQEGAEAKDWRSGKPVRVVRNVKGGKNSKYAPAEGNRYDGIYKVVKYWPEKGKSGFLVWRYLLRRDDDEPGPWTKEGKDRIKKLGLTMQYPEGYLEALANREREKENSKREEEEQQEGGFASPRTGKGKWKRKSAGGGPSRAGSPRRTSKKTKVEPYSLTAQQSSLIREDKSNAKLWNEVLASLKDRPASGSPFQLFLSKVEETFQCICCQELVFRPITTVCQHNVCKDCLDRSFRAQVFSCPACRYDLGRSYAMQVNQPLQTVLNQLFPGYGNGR

[7] = target: T3, Aminopeptidase N (Plasmodium falciparum FcB1/Columbia, UniProt O96935); experiment: malaria alanyl aminopeptidase activity blockers – biochemical, fluorogenic H-Leu-NHMec substrate, 1536-well (AID 1445); design: species or system Plasmodium falciparum 3D7, 3D7
T3 sequence (O96935 whole entry): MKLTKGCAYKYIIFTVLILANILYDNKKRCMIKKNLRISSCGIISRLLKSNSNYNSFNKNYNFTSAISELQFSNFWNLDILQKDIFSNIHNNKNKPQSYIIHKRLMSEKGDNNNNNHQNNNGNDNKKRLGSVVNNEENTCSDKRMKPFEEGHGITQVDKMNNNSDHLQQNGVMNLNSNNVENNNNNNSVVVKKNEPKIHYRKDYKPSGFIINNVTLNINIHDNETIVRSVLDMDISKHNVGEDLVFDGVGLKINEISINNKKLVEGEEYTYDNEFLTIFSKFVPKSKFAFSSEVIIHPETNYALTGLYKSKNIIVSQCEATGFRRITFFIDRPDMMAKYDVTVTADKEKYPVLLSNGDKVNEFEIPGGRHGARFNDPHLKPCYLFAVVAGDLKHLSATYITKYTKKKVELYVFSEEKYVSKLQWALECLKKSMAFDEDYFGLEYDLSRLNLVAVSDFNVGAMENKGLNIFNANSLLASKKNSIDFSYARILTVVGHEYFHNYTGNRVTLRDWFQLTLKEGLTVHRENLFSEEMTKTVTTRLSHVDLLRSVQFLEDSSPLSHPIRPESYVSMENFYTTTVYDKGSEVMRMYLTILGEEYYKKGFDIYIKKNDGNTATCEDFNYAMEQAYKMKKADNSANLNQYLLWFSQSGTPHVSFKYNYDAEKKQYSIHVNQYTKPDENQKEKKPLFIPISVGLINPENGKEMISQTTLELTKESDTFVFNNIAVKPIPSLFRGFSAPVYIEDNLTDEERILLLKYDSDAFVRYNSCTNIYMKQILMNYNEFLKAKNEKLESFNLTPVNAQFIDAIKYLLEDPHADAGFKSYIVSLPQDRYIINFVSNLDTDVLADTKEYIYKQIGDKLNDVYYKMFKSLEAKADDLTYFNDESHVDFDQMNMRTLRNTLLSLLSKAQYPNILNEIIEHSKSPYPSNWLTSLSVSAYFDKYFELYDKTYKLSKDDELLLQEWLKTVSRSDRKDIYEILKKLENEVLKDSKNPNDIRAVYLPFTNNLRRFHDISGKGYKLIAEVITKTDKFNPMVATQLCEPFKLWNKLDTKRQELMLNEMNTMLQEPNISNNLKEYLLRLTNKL

[8] = Luminescence Cell-Based Dose Response HTS to Identify Activators of Luciferase Translation or Activity in H4 […] Cells. [Related pubchem assays: 1829 (Project Summary), 1814 (Primary HTS)]; format: functional
[9] = tested on: H4; experiment: Luminescence Cell-Based Dose Response HTS to Identify Activators of 5'UTR Stem-Loop Driven Prion Protein mRNA Translation in H4 Neuroglioblastoma Cells. [Related pubchem assays: 1829 (Project Summary), 1814 (Primary HTS)]; format: functional; details: Homo sapiens
[10] = target: NADPH oxidase 1 (Homo sapiens, UniProt Q9Y5S8); experiment: Late-stage luminescence-based cell-based dose response assay to identify inhibitors of NADPH oxidase 1 (NOX1): Synthesized analogs.; format: functional
Chain of NADPH oxidase 1 (Q9Y5S8 whole entry): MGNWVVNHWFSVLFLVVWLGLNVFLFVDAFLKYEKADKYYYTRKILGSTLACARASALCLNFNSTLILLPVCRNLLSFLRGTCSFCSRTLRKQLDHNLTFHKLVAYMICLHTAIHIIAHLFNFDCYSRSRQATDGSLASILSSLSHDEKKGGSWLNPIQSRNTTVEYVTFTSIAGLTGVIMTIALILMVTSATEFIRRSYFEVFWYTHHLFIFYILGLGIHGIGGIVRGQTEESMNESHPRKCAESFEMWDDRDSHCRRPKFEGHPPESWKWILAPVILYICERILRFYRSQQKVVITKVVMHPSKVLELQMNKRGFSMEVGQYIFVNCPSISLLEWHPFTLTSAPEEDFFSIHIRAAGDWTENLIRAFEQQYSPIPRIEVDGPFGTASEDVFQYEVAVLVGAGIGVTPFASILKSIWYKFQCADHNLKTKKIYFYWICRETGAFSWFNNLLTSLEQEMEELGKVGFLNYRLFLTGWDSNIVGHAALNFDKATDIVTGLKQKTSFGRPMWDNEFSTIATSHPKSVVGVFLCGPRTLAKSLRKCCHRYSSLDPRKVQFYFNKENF

[11] = Luminescence Cell-Based Dose Confirmation HTS to Identify Activators of 5'UTR Stem-Loop Driven Alpha-Synuclein mRNA Translation in H4 Neuroglioblastoma Cells. [Related pubchem assays: 1829 (Project Summary), 1814 (Primary HTS)]; format: functional
[12] = target: RNA-editing ligase 1, mitochondrial (Trypanosoma brucei brucei, UniProt P86926); experiment: inhibition of trypanosome RNA editing ligase – biochemical, fluorescence, Trypanosoma brucei, dose response (AID 1117295); format: functional
Chain of RNA-editing ligase 1, mitochondrial (P86926 whole entry): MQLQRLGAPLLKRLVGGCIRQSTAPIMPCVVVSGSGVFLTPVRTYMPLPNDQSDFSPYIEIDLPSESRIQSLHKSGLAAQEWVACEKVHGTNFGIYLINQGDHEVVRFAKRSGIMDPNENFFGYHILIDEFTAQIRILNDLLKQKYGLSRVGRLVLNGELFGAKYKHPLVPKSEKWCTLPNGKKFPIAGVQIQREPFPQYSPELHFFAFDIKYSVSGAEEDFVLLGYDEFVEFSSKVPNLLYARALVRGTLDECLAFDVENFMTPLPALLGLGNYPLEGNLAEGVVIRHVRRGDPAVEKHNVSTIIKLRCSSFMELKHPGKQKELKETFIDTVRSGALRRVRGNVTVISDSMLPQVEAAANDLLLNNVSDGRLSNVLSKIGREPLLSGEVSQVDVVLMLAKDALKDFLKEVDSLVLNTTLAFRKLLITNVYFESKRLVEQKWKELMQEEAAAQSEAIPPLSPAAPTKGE

[13] = IC50 of Artemis nuclease activity blockers – biochemical, fluorescence intensity, dose response (AID 720701); format: functional;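 also: Artemis endonuclease enzyme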
[14] = target: Glutathione-S-transferase (Schistosoma japonicum, UniProt Q26513); experiment: GST-antibody interaction or FRET quenching – biochemical, TR-FRET, artefact control for Vif-APOBEC3G degradation inhibitor project, dose response (AID 1117362); format: functional
Chain of Glutathione-S-transferase (Q26513 whole entry): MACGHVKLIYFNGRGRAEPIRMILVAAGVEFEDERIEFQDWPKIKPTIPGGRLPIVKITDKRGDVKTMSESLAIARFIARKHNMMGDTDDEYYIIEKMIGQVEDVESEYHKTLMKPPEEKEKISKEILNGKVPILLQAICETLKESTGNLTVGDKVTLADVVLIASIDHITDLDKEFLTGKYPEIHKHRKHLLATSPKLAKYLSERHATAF

[15] = target: T1, Sphingosine 1-phosphate receptor 2; experiment: Dose Response Cell Based Assay for Agonists of the S1P2 Receptor. [Related pubchem assays: 729, 736, 843 ]; format: functional
[16] = cells; details: A549
[17] = cells
[18] = cells; details: HEK293
[19] = viability loss in HepG2 liver cells – cell-based, ATP luminescence, cherry-pick, set 6, cytotoxicity control, dose response (AID 1053125); format: functional
[20] = inhibition of Env-driven cell fusion – HIV entry, plate reader, dry powder, dose response (AID 687023); format: functional, cell-based
[21] = viability loss in CEM21 cells – cell-based, plate reader, dry powder, cytotoxicity control, dose response (AID 687026); format: functional
[22] = PAX8-dependent cell viability loss – plate reader, dry powder, dose response (AID 743049); format: functional, cell-based
[23] = target: Paired box protein Pax-8 (Homo sapiens, UniProt Q06710); experiment: PAX8 transcriptional activity inhibition in RMG-I – RMG-I cells, luciferase, cherry-pick, dose response (AID 687027); format: functional, cell-based;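 also: luciferase reporter driven by Pax8 target thyroperoxidase promoter measured by SteadyGlo luminescence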
Chain of Paired box protein Pax-8 (Q06710 whole entry): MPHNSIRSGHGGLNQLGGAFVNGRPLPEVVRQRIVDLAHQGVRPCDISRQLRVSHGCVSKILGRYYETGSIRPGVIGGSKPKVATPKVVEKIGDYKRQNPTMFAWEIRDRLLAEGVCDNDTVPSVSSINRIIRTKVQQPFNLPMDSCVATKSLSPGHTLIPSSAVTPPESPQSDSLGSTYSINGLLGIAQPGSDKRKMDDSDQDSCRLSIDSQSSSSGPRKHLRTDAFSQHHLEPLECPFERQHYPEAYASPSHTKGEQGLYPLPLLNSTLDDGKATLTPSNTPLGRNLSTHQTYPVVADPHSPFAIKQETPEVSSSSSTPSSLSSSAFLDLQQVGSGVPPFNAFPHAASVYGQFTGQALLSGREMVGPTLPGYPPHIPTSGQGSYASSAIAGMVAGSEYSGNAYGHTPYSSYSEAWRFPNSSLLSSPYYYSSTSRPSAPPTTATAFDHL

[24] = OVCAR8 cell viability loss – plate reader, dry powder samples, PAX8 project, dose response (AID 743197); format: functional, cell-based; details: OVCAR-8

Structure (SMILES): Cc1ccccc1-c1nc(CN2CCCC(C(=O)NCCCN3CCOCC3)C2)c(C)o1 (centres undefined)
- IC50 [1]: > 83.3 µM (inactive)
- IC50 [2]: > 109 µM (inactive)

Structure (SMILES): O=C(O)c1sc2cc(C(F)(F)F)cnc2c1-c1ccccn1
- IC50 [3]: > 30 µM (not active)

Structure (SMILES): CCCN(C(=O)c1cc2c(s1)CCC2)c1c(N)n(Cc2ccccc2)c(=O)[nH]c1=O
- IC50 [4]: 37.7 µM (active)
- IC50 [5]: 16.7 µM (active)
- IC50 [6]: > 43.8 µM (inactive)
- IC50 [7]: 77.2 µM (active)

Structure (SMILES): c1ccc2c(c1)Nc1cc3ccccc3cc1S2
- EC50 [8]: 6.01 µM (active)
- EC50 [9]: 5.77 µM (active)
- IC50 [10]: 7.58 µM (active)
- EC50 [11]: 98.5 µM (active)

Structure (SMILES): CC(C)c1c(Cl)c(O)c(-c2ccccc2)c(=O)n1-c1ccc(F)cc1
- IC50 [12]: 61.6 µM (inactive)

Structure (SMILES): Cc1ccc(C(=O)N/C(=C\c2ccc(-c3cc(Cl)ccc3Cl)o2)C(=O)NCc2cccnc2)cc1
- IC50 [13]: > 20 µM (inactive)

Structure (SMILES): CC1CCCCN1Cc1ccc(N(C)C)cc1 (centres undefined)
- IC50 [14]: > 100 µM (active)

Structure (SMILES): O=c1c(-c2nc3ccccc3s2)cccn1Cc1ccc(Cl)c(Cl)c1
- EC50 [15]: 2.18 µM (active)

Structure (SMILES): N=c1oc2cc(O)ccc2cc1C(=O)Nc1ccc(Cl)cc1
- AC50 [16]: > 52 µM (inactive)
- AC50 [17]: 1.95 µM (active)
- AC50 [18]: > 52 µM (inactive)
- AC50 [19]: > 52 µM (inactive)

Structure (SMILES): Clc1ccc2c(c1)C(C1=NCCN1)c1ccccc1CS2 (centres undefined)
- AC50 [20]: 42.5 µM (active) and 54 µM (active)
- AC50 [21]: > 70 µM (inactive)

Structure (SMILES): C[C@@H]1CN([C@H](C)CO)C(=O)CCCn2cc(nn2)CO[C@H]1CN(C)C(=O)Nc1ccc(-c2cccs2)cc1
- AC50 [22]: 1.65 µM (active)
- AC50 [23]: < 0.26 µM (active)
- AC50 [24]: > 70 µM (inactive)
